Measured values as given in patent US8853246B2 (Dow AgroSciences LLC, priority 2009, dated 2014).
Where two headings read alike, the source gives them in different places.

Assays:
[1] = test system: Green Peach Aphid (Myzus Persicae); test: Insecticidal test for green peach aphid in foliar spray assay (col. MYZUPE); type: in vivo; settings: Myzus persicae, 72 h, read-out: MYZUPE 200 ppm (Corrected % Control, rating)
Method: (§1) The compounds were tested against cotton aphid, green peach aphid, and sweet potato whitefly using procedures described in the following examples and reported in Table 2.
(§2) In each case of Table 2, the rating scale is as follows at 200 ppm.
Insecticidal Test for Green Peach Aphid (Myzus Persicae) in Foliar Spray Assay
Cabbage seedlings grown in 3-inch pots, with 2-3 small (3-5 cm) true leaves, were used as test substrate. The seedlings were infested with 20-50 green peach aphids (wingless adult and nymph) one day prior to chemical application. Four pots with individual seedlings were used for each treatment. Compounds (2 mg) were dissolved in 2 mL of acetone/methanol (1:1) solvent, forming stock solutions of 1000 ppm. The stock solutions were diluted 5× with 0.025% Tween 20 in H2O to obtain a test solution at 200 ppm. A hand-held Devilbiss sprayer was used for spraying a solution to both sides of cabbage leaves until runoff. Reference plants (solvent check) were sprayed with the diluent only. Treated plants were held in a holding room for three days at approximately 25° C. and 40% relative humidity (RH) prior to grading. Evaluation was conducted by counting the number of live aphids per plant under a microscope. Corrected % Control=100*(X−Y)/X • where X=No. of live aphids on solvent check plants • Y=No. of live aphids on treated plants

[2] = test system: Sweetpotato Whitefly-Crawler (Bemisia Tabaci); test: Insecticidal test for sweetpotato whitefly-crawler in foliar spray assay (col. BEMITA); type: in vivo; settings: for pest or weed control at 200 ppm: Bemisia tabaci, read-out: BEMITA 200 ppm (Corrected % Control, rating)
Method: as §1, §2
Insecticidal Test for Sweetpotato Whitefly-Crawler (Bemisia Tabaci) in Foliar Spray Assay
Cotton plants grown in 3-inch pots, with 1 small (3-5 cm) true leaf, were used as test substrate. The plants were placed in a room with whitefly adults. Adults were allowed to deposit eggs for 2-3 days. After a 2-3 day egg-laying period, plants were taken from the adult whitefly room. Adults were blown off leaves using a hand-held Devilbiss sprayer (23 psi). Plants with egg infestation (100-300 eggs per plant) were placed in a holding room for 5-6 days at 82° F. and 50% RH for egg hatch and crawler stage to develop. Four cotton plants were used for each treatment. Compounds (2 mg) were dissolved in 1 mL of acetone solvent, forming stock solutions of 2000 ppm. The stock solutions were diluted 10× with 0.025% Tween 20 in H2O to obtain a test solution at 200 ppm. A hand-held Devilbiss sprayer was used for spraying a solution to both sides of cotton leaf until runoff. Reference plants (solvent check) were sprayed with the diluent only. Treated plants were held in a holding room for 8-9 days at approximately 82° F. and 50% RH prior to grading. Evaluation was conducted by counting the number of live nymphs per plant under a microscope. Insecticidal activity was measured by using Abbott's correction formula and presented in Table 2 (see col. “BEMITA”): Corrected % Control=100*(X−Y)/X • where X=No. of live nymphs on solvent check plants • Y=No. of live nymphs on treated plants Pesticidally Acceptable Acid Addition Salts, Salt Derivatives, Solvates, Ester Derivatives, Polymorphs, Isotopes and Radionuclides

Structure (SMILES) | pest or weed control at 200 ppm ([1]; green peach aphid) [%] | pest or weed control at 200 ppm ([2]; sweetpotato whitefly-crawler) [%] | pest or weed control at 200 ppm ([1]; Abbott's correction formula) [%] | pest or weed control at 200 ppm ([2]; Abbott's correction formula) [%] | BEMITA 200 ppm (Corrected % Control, rating) ([2]; sweetpotato whitefly-crawler)
CCO[C@@H]1[C@@H](OC)[C@H](C)OC(OC(=O)Nc2sc(-c3cccnc3)nc2C)[C@@H]1OC (mixture of isomers) [Compound 182] | 80 to 100 | < 80 |  |  | 
CS[C@H]1CC1C(=O)N(C)c1sc(-c2cncc(F)c2)nc1Cl (mixture of isomers) [Compound 445] |  |  | 80 to 100 | 80 to 100 | 
CCN(C(=O)C1C[C@@H]1SC)c1sc(-c2cncc(F)c2)nc1Cl (mixture of isomers) [Compound 448] |  |  | 80 to 100 | 80 to 100 | 
CN(C(=O)C(F)(F)F)c1cnc(-c2cncc(F)c2)s1 [Compound 1, 2,2,2-trifluoro-N-[2-(5-fluoropyridin-3-yl)-thiazol-5-yl]-N-methyl-acetamide] | < 80 | 80 to 100 |  |  | 
CN(C(=O)C(F)(F)F)c1cnc(-c2cccnc2)s1 [Compound 2, 2,2,2-Trifluoro-N-methyl-N-(2-pyridin-3-yl-thiazol-5-yl)-acetamide] | < 80 | < 80 |  |  | 
CCc1nc(-c2cccnc2)sc1N(C)C(=O)C(F)(F)F [Compound 3, N-(4-Ethyl-2-pyridin-3-yl-thiazol-5-yl)-2,2,2-trifluoro-N-methyl-acetamide] | < 80 | < 80 |  |  | 
CN(C(=O)C(F)(F)F)c1sc(-c2cccnc2)nc1-c1ccccc1 [Compound 4, 2,2,2-Trifluoro-N-methyl-N-(4-phenyl-2-pyridin-3-yl-thiazol-5-yl)-acetamide] | < 80 | < 80 |  |  | 
CN(C(=O)C(F)(F)F)c1sc(-c2cccnc2)nc1Cl [Compound 6, N-(4-Chloro-2-pyridin-3-yl-thiazol-5-yl)-2,2,2-trifluoro-N-methyl-acetamide] | < 80 | < 80 |  |  | 
CC(C)(C)OC(=O)Nc1sc(-c2cccnc2)nc1C(F)(F)F [Compound 7, (2-pyridin-3-yl-4-trifluoromethyl-thiazol-5-yl)-carbamic acid tert-butyl ester] | < 80 | < 80 |  |  | 
Cc1nc(-c2cncnc2)sc1NC(=O)OC(C)(C)C [Compound 8, (4-Methyl-2-pyrimidin-5-yl-thiazol-5-yl)-carbamic acid tert-butyl ester] | 80 to 100 |  |  |  | 
Cc1nc(-c2cccnc2)sc1NC(=O)OC(C)(C)C [Compound 9, (4-Methyl-2-pyridin-3-yl-thiazol-5-yl)-carbamic acid tert-butyl ester] | 80 to 100 | 80 to 100 |  |  | 
CN(C(=O)OC(C)(C)C)c1sc(-c2cccnc2)nc1C(F)(F)F [Compound 10, methyl-(2-pyridin-3-yl-4-trifluoromethyl-thiazol-5-yl)carbamic acid tert-butyl ester] | < 80 | 80 to 100 |  |  | 
Cc1nc(-c2cncnc2)sc1N(C)C(=O)OC(C)(C)C [Compound 11, Methyl-(4-methyl-2-pyrimidin-5-yl-thiazol-5-yl)-carbamic acid tert-butyl ester] | < 80 |  |  |  | 
CCN(C(=O)OC(C)(C)C)c1sc(-c2cccnc2)nc1C [Compound 12, Ethyl-(4-methyl-2-pyridin-3-yl-thiazol-5-yl)-carbamic acid tert-butyl ester] | 80 to 100 | 80 to 100 |  |  | 
Cc1nc(-c2cccnc2)sc1N(C(=O)OC(C)(C)C)C(C)C [Compound 13, Isopropyl-(4-methyl-2-pyridin-3-yl-thiazol-5-yl)-carbamic acid tert-butyl ester] | 80 to 100 | 80 to 100 |  |  | 
Cc1nc(-c2cccnc2)sc1N(CC(C)C)C(=O)OC(C)(C)C [Compound 14, Isobutyl-(4-methyl-2-pyridin-3-yl-thiazol-5-yl)-carbamic acid tert-butyl ester] | < 80 | 80 to 100 |  |  | 
Cc1nc(-c2cccnc2)sc1N(Cc1ccccc1)C(=O)OC(C)(C)C [Compound 15, Benzyl-(4-methyl-2-pyridin-3-yl-thiazol-5-yl)-carbamic acid tert-butyl ester] | 80 to 100 | 80 to 100 |  |  | 
CN(C(=O)OC(C)(C)C)c1cnc(-c2ccc(Cl)nc2)s1 [Compound 16, [2-(6-chloropyridin-3-yl)-thiazol-5-yl]-methyl-carbamic acid tert-butyl ester] | < 80 | 80 to 100 |  |  | 
CSCC(C)C(=O)Nc1sc(-c2cncc(Cl)c2)nc1C (stereo not shown) [Compound 17, N-[2-(5-chloropyridin-3-yl)-4-methyl-thiazol-5-yl]-2-methyl-3-methylsulfanyl-propionamide] | 80 to 100 | 80 to 100 |  |  | 

Structure (SMILES) | pest or weed control at 200 ppm ([1]; green peach aphid) [%] | pest or weed control at 200 ppm ([2]; sweetpotato whitefly-crawler) [%] | pest or weed control at 200 ppm ([1]; Abbott's correction formula) [%] | pest or weed control at 200 ppm ([2]; Abbott's correction formula) [%] | BEMITA 200 ppm (Corrected % Control, rating) ([2]; sweetpotato whitefly-crawler)
CSCC(C)(C)C(=O)N(C)c1cnc(-c2cncc(F)c2)s1 [Compound 18, N-[2-(5-fluoropyridin-3-yl)-thiazol-5-yl]-2,2,N-trimethyl-3-methylsulfanyl-propionamide] | 80 to 100 | 80 to 100 |  |  | 
CSCC(C)(C)C(=O)Nc1sc(-c2ccc(F)nc2)nc1C [Compound 20, N-[2-(6-fluoropyridin-3-yl)-4-methyl-thiazol-5-yl]-2,2-dimethyl-3-methylsulfanyl-propionamide] | 80 to 100 | 80 to 100 |  |  | 
Cc1nc(-c2cccnc2)sc1N(C(=O)C(C)C)C(=O)C(C)C [Compound 21, N-isobutyryl-N-(4-methyl-2-pyridin-3-yl-thiazol-5-yl)-isobutyramide] | 80 to 100 | 80 to 100 |  |  | 
CSCCC(=O)N(C)c1sc(-c2cccnc2)nc1C [Compound 35] | 80 to 100 | 80 to 100 |  |  | 
CSCC(C)C(=O)N(C)c1sc(-c2cccnc2)nc1C (stereo not shown) [Compound 36] | 80 to 100 | 80 to 100 |  |  | 
Cc1nc(-c2cccnc2)sc1N(C)C(=O)C(C)C [Compound 37] | 80 to 100 | 80 to 100 |  |  | 
CSCCC(=O)N(C)c1sc(-c2cncc(F)c2)nc1C [Compound 38] | 80 to 100 | 80 to 100 |  |  | 
CSCC(C)(C)C(=O)N(C)c1sc(-c2cncc(F)c2)nc1C [Compound 39] | 80 to 100 | 80 to 100 |  |  | 
CSCC(C)C(=O)N(C)c1sc(-c2cncc(F)c2)nc1C (stereo not shown) [Compound 40] | 80 to 100 | 80 to 100 |  |  | 
CSCCC(=O)N(C)c1sc(-c2cccnc2)nc1C(F)(F)F [Compound 43] | 80 to 100 | 80 to 100 |  |  | 
CSCC(C)C(=O)N(C)c1sc(-c2cccnc2)nc1C(F)(F)F (stereo not shown) [Compound 44] | 80 to 100 | 80 to 100 |  |  | 
CSCC(C)(C)C(=O)N(C)c1sc(-c2cccnc2)nc1C(F)(F)F [Compound 45] | < 80 | 80 to 100 |  |  | 
CC(C)C(=O)N(C)c1sc(-c2cccnc2)nc1C(F)(F)F [Compound 46] | < 80 | < 80 |  |  | 
CCc1nc(-c2cccnc2)sc1N(C)C(=O)CCSC [Compound 47] | 80 to 100 | 80 to 100 |  |  | 
CCc1nc(-c2cccnc2)sc1N(C)C(=O)C(C)C [Compound 48] | 80 to 100 | 80 to 100 |  |  | 
Cc1nc(-c2cccnc2)sc1N(C)C(=O)[C@@H](COCc1ccccc1)NC(=O)OC(C)(C)C [Compound 310] | < 80 |  |  |  | 
Cc1nc(-c2cccnc2)sc1N(C)C(=O)C(NC(=O)OC(C)(C)C)C(C)C (stereo not shown) [Compound 311] | 80 to 100 |  |  |  | 
Cc1nc(-c2cccnc2)sc1N(C)C(=O)C1CCN1C(=O)OC(C)(C)C (stereo not shown) [Compound 338] |  |  |  |  | A (80-100)
CSCC(C)C(=O)N(C)c1sc(-c2cnc(Cl)c(F)c2)nc1Cl (stereo not shown) [Compound 473] |  |  |  | < 80 | 
